Laboratory results reported in patent US20260077018A1, “TREATMENT OF MILD TRAUMATIC BRAIN INJURY” (OXEIA BIOPHARMACEUTICALS, INC., priority 2022, published 2026).
No end group written: not given here. *: point of attachment. Octanoyl = CCCCCCCC(=O)*

System: persistently symptomatic concussion patients
Experiment: Phase 2 study of OXE-103 in persistently symptomatic concussion: PCSS symptom scoring
Assay type: in vivo, human
Conditions: for PCSS symptom balance_problems / PCSS symptom difficulty_concentrating / PCSS symptom difficulty_remembering / PCSS symptom dizziness / PCSS symptom drowsiness / PCSS symptom fatigue / PCSS symptom feeling_in_a_fog / PCSS symptom feeling_more_emotional / PCSS symptom feeling_slowed_down / PCSS symptom headache / PCSS symptom irritability / PCSS symptom nausea / PCSS symptom neck_pain / PCSS symptom nervous_anxious / PCSS symptom numbness_or_tingling / PCSS symptom sadness / PCSS symptom sensitivity_to_light / PCSS symptom sensitivity_to_noise / PCSS symptom sleeping_less_than_usual / PCSS symptom sleeping_more_than_usual / PCSS symptom trouble_falling_asleep / PCSS symptom visual_problems / PCSS symptom vomiting: OXE-103 Treated, aggregated; for 20% Responders - PCSS: Number of Responders / 20% Responders - PCSS: Responder % / 30% Responders - PCSS: Number of Responders / 30% Responders - PCSS: Responder %: Treated, 13 subjects
Source text: Describe the change in symptom burden in sub-acute concussion for the two groups. A maximum of 50 subjects are enrolled, but recruiting stops if each arm has 20 participants, diagnosed with persistent concussion symptoms 28 days post injury who complete the study. Patients are randomized 1:1 to placebo versus OXE-103. The Post-Concussion Symptom Score questionnaire (PCSS) is used as an overall measure of symptom burden. The number of symptoms and severity at each time point are also measures of interest. In addition, subjects are asked to identify and rank the 4 most bothersome symptoms. Without being bound by theory, it is hypothesized that changes in these most bothersome symptoms have a higher correlation to improvement in quality of life. A visual comparison of change in the two groups is made. A change of 20% is considered to be clinically meaningful. This primary aim describes the change in symptoms between day 1 and day 14.
Described herein is a randomized, double-blind, placebo-controlled design where 40 subjects will be randomized to either a placebo cohort or a treatment with OXE-103 cohort. We randomize using the RedCap database. The database is set up to share randomization allocation only with the investigational pharmacy. All subjects are consented and begin the screening period within 28 days post-injury. There is a 7-day screening period prior to randomization and commencement of study treatment to allow for assessment of stability of symptom burden. This screening period must start no later than 28 days post-injury. Starting with Day 1 (end of screening period), the treatment cohort receives OXE-103 40ug/kg SC twice daily by self-injection and the placebo group receives a placebo injection SC twice daily. Study drug and placebo are maintained and dispensed by Investigational Pharmacy. Subjects receive an 8-day supply of syringes pre-loaded with OXE-103 or placebo. Each cohort receives the 2nd set of syringes with OXE-103 or placebo at the day 7 visit. No therapies other than OXE-103 are administered during the 14-day treatment period to either cohort. After completion of 14 days of either placebo or OXE-103 treatment, starting with the Day 14 visit, other medications and therapies can be initiated for either cohort as needed.
Symptom reduction (AIM 1): Our primary goal is to describe the change in number of symptoms and/or severity in sub-acute concussion with treatment with OXE-103 using the PCSS at days 1 and 15. We will also collect data at days 21 and 44 to potentially describe long term changes and potential lasting effect (AIM 4).
Subjects complete the PCSS at the following timepoints[17]: upon signing consent (score must 20) (day −7), mid-way through the screening period (day −3), prior to assignment of a treatment cohort (score must 20) (day 1), as well as days 4, 8, 11, 15, 21 and 44. Subjects are instructed to record their symptoms at the same time of day for each assessment timepoint. There can be a two-hour window either way. (e.g. 12 PM+/−2 hrs.) The PCSS is recorded via a RedCap survey. The PCSS is a self-reported assessment of 22 symptoms using a Likert-type scale ranging from 0-6, with 0 indicating no difficulty with the outlined symptom and ratings of 1-6 representing mild-to-severe difficulty with the symptom. The reliability and validity of the PCSS are well documented We also ask subjects to rank their 4 most burdensome symptoms (4MBS) at Day 1 and we analyze these separately. As stated in the Specific Aims the purpose of this study is to collect data that would further refine clinical endpoints that could be used for larger Phase 2 studies and possibly lead to the establishment of pivotal endpoints for Phase 3 registration trials. The 22 symptom PCSS assessment is designed to cover the full spectrum of concussion related symptoms across cognitive, emotional and somatic domains. In that regard the PCSS is particularly useful for diagnosis and monitoring recovery of patients post injury. […]

Substance: ghrelin (GSS(Octanoyl)FLSPEHQRVQQRKESKKPPAKLQPR; UniProt Q9UBU3 24-51, looked up) [OXE-103, naturally occurring peptide comprising 28 amino acids that include an N-octanoyl group at the 3-position of serine]
- PCSS symptom balance_problems (Day 1): 30
- PCSS symptom difficulty_concentrating (Day 1): 46
- PCSS symptom difficulty_remembering (Day 1): 48
- PCSS symptom dizziness (Day 1): 37
- PCSS symptom drowsiness (Day 1): 38
- PCSS symptom fatigue (Day 1): 43
- PCSS symptom feeling_in_a_fog (Day 1): 46
- PCSS symptom feeling_more_emotional (Day 1): 31
- PCSS symptom feeling_slowed_down (Day 1): 46
- PCSS symptom headache (Day 1): 37
- PCSS symptom irritability (Day 1): 35
- PCSS symptom nausea (Day 1): 18
- PCSS symptom neck_pain (Day 1): 38
- PCSS symptom nervous_anxious (Day 1): 35
- PCSS symptom numbness_or_tingling (Day 1): 16
- PCSS symptom sadness (Day 1): 28
- PCSS symptom sensitivity_to_light (Day 1): 35
- PCSS symptom sensitivity_to_noise (Day 1): 36
- PCSS symptom sleeping_less_than_usual (Day 1): 15
- PCSS symptom sleeping_more_than_usual (Day 1): 24
- PCSS symptom trouble_falling_asleep (Day 1): 37
- PCSS symptom visual_problems (Day 1): 30
- PCSS symptom vomiting (Day 1): 2
- 20% Responders - PCSS: Number of Responders (Day 1): 0
- 20% Responders - PCSS: Responder % (Day 1): 0%
- 30% Responders - PCSS: Number of Responders (Day 1): 0
- 30% Responders - PCSS: Responder % (Day 1): 0%
- PCSS symptom balance_problems (Day 4): 25
- PCSS symptom difficulty_concentrating (Day 4): 37
- PCSS symptom difficulty_remembering (Day 4): 35
- PCSS symptom dizziness (Day 4): 35
- PCSS symptom drowsiness (Day 4): 39
- PCSS symptom fatigue (Day 4): 44
- PCSS symptom feeling_in_a_fog (Day 4): 30
- PCSS symptom feeling_more_emotional (Day 4): 24
- PCSS symptom feeling_slowed_down (Day 4): 33
- PCSS symptom headache (Day 4): 29
- PCSS symptom irritability (Day 4): 30
- PCSS symptom nausea (Day 4): 11
- PCSS symptom neck_pain (Day 4): 29
- PCSS symptom nervous_anxious (Day 4): 25
- PCSS symptom numbness_or_tingling (Day 4): 6
- PCSS symptom sadness (Day 4): 17
- PCSS symptom sensitivity_to_light (Day 4): 25
- PCSS symptom sensitivity_to_noise (Day 4): 26
- PCSS symptom sleeping_less_than_usual (Day 4): 23
- PCSS symptom sleeping_more_than_usual (Day 4): 32
- PCSS symptom trouble_falling_asleep (Day 4): 32
- PCSS symptom visual_problems (Day 4): 18
- PCSS symptom vomiting (Day 4): 1
- 20% Responders - PCSS: Number of Responders (Day 4): 4
- 20% Responders - PCSS: Responder % (Day 4): 31%
- 30% Responders - PCSS: Number of Responders (Day 4): 3
- 30% Responders - PCSS: Responder % (Day 4): 23%
- PCSS symptom balance_problems (Day 8): 30
- PCSS symptom difficulty_concentrating (Day 8): 41
- PCSS symptom difficulty_remembering (Day 8): 35
- PCSS symptom dizziness (Day 8): 28
- PCSS symptom drowsiness (Day 8): 41
- PCSS symptom fatigue (Day 8): 45
- PCSS symptom feeling_in_a_fog (Day 8): 34
- PCSS symptom feeling_more_emotional (Day 8): 33
- PCSS symptom feeling_slowed_down (Day 8): 36
- PCSS symptom headache (Day 8): 34
- PCSS symptom irritability (Day 8): 36
- PCSS symptom nausea (Day 8): 15
- PCSS symptom neck_pain (Day 8): 26
- PCSS symptom nervous_anxious (Day 8): 34
- PCSS symptom numbness_or_tingling (Day 8): 12
- PCSS symptom sadness (Day 8): 32
- PCSS symptom sensitivity_to_light (Day 8): 20
- PCSS symptom sensitivity_to_noise (Day 8): 23
- PCSS symptom sleeping_less_than_usual (Day 8): 32
- PCSS symptom sleeping_more_than_usual (Day 8): 20
- PCSS symptom trouble_falling_asleep (Day 8): 32
- PCSS symptom visual_problems (Day 8): 23
- PCSS symptom vomiting (Day 8): 1
- 20% Responders - PCSS: Number of Responders (Day 8): 3
- 20% Responders - PCSS: Responder % (Day 8): 23%
- 30% Responders - PCSS: Number of Responders (Day 8): 2
- 30% Responders - PCSS: Responder % (Day 8): 15%
- PCSS symptom balance_problems (Day 11): 24
- PCSS symptom difficulty_concentrating (Day 11): 23
- PCSS symptom difficulty_remembering (Day 11): 28
- PCSS symptom dizziness (Day 11): 18
- PCSS symptom drowsiness (Day 11): 33
- PCSS symptom fatigue (Day 11): 36
- PCSS symptom feeling_in_a_fog (Day 11): 23
- PCSS symptom feeling_more_emotional (Day 11): 20
- PCSS symptom feeling_slowed_down (Day 11): 27
- PCSS symptom headache (Day 11): 21
- PCSS symptom irritability (Day 11): 28
- PCSS symptom nausea (Day 11): 10
- PCSS symptom neck_pain (Day 11): 18
- PCSS symptom nervous_anxious (Day 11): 19
- PCSS symptom numbness_or_tingling (Day 11): 5
- PCSS symptom sadness (Day 11): 22
- PCSS symptom sensitivity_to_light (Day 11): 18
- PCSS symptom sensitivity_to_noise (Day 11): 19
- PCSS symptom sleeping_less_than_usual (Day 11): 15
- PCSS symptom sleeping_more_than_usual (Day 11): 19
- PCSS symptom trouble_falling_asleep (Day 11): 21
- PCSS symptom visual_problems (Day 11): 12
- PCSS symptom vomiting (Day 11): 1
- 20% Responders - PCSS: Number of Responders (Day 11): 9
- 20% Responders - PCSS: Responder % (Day 11): 69%
